The text below walks through data of ChEMBL document CHEMBL4387773, “Identification of potent, selective and orally bioavailable phenyl ((R)-3-phenylpyrrolidin-3-yl)sulfone analogues as RORγt inverse agonists” (Bioorg Med Chem Lett, 2019).

Series [1] addresses T1, Nuclear receptor subfamily 1 group I member 2 (Homo sapiens, UniProt O75469).
T1 sequence (O75469 whole entry): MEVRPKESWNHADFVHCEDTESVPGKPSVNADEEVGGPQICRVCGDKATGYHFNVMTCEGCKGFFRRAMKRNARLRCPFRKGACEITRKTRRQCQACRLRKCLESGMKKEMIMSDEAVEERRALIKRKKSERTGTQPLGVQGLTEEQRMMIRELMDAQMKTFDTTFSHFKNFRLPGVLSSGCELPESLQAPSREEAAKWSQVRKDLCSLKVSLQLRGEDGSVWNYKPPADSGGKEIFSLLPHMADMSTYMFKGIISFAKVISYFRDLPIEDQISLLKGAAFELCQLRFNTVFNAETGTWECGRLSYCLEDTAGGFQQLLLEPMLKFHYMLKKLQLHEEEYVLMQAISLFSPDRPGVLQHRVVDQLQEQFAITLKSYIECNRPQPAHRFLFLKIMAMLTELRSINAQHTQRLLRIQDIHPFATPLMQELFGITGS
As to the kind of experiment: Transactivation of PXR (unknown origin) expressed in human HepG2 cells. It counts as cell-based.

Series [2] can be described thus: Stability in mouse liver microsomes assessed as parent compound remaining after 10 mins. In kind it is ADME, Microsome. To be noted: liver microsomes, read-out: Stability.
Series [3] concerns the target T2, Nuclear receptor ROR-beta (Homo sapiens, UniProt Q92753).
T2 sequence (Q92753 whole entry): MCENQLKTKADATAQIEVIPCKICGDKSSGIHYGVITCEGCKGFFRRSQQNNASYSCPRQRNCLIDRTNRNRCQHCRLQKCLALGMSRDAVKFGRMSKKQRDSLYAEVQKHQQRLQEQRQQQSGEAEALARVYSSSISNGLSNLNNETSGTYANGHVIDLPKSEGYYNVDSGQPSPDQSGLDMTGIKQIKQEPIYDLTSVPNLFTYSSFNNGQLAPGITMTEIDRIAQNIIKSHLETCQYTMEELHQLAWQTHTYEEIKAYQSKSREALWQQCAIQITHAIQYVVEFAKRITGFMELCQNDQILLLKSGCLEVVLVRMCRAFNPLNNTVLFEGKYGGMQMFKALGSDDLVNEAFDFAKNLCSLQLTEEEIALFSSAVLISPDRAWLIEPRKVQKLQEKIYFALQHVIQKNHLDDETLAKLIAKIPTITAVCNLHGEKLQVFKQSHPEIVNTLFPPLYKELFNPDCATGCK
Briefly: Inverse agonist activity at human Gal4-fused RORbeta LBD (200 to 559 residues) expressed in human Jurkat cells measured after 18 hrs by steady-glo luciferase reporter gene assay. It counts as cell-based.

For series [4], the target named is T3, Oxysterols receptor LXR-beta (Homo sapiens, UniProt P55055).
T3 sequence (P55055 whole entry): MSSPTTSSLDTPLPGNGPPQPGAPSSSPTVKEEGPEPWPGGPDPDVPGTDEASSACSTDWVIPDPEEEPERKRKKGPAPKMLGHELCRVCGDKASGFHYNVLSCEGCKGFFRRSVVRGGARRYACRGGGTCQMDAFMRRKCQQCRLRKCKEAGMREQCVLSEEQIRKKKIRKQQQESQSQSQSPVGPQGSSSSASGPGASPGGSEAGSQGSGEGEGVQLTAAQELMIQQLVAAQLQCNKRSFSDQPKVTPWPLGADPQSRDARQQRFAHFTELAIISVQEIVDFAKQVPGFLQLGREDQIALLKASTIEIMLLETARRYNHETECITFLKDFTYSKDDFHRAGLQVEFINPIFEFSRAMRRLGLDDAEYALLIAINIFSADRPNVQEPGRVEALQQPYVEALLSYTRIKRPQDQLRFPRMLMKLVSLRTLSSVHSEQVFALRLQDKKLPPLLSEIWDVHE
As to the kind of experiment: Transactivation of human GAL4-fused LXRbeta expressed in African green monkey CV1 cells. In kind it is cell-based.

A short description of series [5]: Half life in mouse liver microsomes. In kind it is ADME, Microsome. A general note: Microsomes from liver hold many membrane-bound enzymes, among them those of drug oxidation.
The nature of series [6]: Permeability in human Caco2 cells. In kind it is ADME, cell-based. Particulars: Caco-2, read-out: permeability. Background: Passage across Caco-2 layers is used to estimate intestinal permeability.
Another series has as its target T4, Cytochrome P450 2B6 (Homo sapiens, UniProt P20813).
T4 sequence (P20813 whole entry): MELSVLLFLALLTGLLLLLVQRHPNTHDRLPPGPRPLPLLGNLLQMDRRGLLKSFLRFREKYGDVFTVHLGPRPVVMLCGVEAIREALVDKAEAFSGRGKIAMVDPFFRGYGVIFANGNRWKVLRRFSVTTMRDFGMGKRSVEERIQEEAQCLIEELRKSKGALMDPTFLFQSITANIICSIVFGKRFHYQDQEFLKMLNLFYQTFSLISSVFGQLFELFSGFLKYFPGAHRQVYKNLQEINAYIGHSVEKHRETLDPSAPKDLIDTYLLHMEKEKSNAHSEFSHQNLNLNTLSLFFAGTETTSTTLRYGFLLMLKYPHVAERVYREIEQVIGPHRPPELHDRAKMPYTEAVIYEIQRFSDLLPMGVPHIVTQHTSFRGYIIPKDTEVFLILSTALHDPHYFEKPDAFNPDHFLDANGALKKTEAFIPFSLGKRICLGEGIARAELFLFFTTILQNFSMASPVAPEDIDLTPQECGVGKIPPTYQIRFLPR
As to the kind of experiment: Inhibition of CYP2B6 (unknown origin). In kind it is ADME.

A further series concerns the target T5, Cytochrome P450 2C8 (Homo sapiens, UniProt P10632).
T5 sequence (P10632 whole entry): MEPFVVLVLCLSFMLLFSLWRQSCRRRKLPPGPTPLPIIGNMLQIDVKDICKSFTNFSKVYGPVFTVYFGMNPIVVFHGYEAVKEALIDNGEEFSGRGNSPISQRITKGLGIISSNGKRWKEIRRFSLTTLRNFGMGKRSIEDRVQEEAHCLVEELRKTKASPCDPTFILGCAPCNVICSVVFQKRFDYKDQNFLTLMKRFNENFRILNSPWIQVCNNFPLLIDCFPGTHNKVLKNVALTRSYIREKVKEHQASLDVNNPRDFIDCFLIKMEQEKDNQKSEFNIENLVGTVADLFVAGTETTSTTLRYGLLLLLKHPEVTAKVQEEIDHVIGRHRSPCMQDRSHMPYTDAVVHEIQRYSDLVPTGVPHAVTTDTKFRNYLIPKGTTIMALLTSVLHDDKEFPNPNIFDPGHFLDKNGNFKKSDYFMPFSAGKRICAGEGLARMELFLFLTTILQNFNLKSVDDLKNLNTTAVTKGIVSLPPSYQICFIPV
As to the kind of experiment: Inhibition of CYP2C8 (unknown origin). It counts as ADME.

In the next series the target is Cytochrome P450 2C9 (Homo sapiens, UniProt P11712). As to the kind of experiment: Inhibition of CYP2C9 (unknown origin). It counts as ADME.
Series [7] can be described thus: Tmax in Balb/c mouse at 10 mg/kg, po. In kind it is ADME, organism-based. To be noted: in vivo.

The structures appear in SMILES notation.

Chain of Cytochrome P450 2C9 (P11712 whole entry): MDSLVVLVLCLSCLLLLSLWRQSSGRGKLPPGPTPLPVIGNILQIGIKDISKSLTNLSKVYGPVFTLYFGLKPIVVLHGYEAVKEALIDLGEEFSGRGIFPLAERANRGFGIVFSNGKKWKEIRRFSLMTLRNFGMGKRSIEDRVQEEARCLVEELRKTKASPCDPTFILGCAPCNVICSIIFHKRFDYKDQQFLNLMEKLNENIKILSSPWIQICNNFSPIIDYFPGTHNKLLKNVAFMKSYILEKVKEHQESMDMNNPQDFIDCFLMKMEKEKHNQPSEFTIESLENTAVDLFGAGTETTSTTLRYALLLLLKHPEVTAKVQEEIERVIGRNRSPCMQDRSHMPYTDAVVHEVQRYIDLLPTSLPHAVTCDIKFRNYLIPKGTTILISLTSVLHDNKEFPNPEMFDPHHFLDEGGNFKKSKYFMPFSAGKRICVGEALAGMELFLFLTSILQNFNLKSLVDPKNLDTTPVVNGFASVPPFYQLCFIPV

For `O=C(O)C12CCC(C(=O)N3CC[C@](c4ccc(C(F)(C(F)(F)F)C(F)(F)F)cc4)(S(=O)(=O)c4ccc(F)cc4)C3)(CC1)CC2`, the EC50 in series [1] is more than 50 µM; in [3], more than 40 µM; in series [4], more than 7.5 µM. For the same compound, the remaining at 10 min in [2] was found to be 73%. Moreover, in series [5], the half-life was more than 2 h. Besides, the Papp in [6] is 15 ×10⁻⁶ cm/s. Besides, the IC50 against Cytochrome P450 2B6, on Cytochrome P450 2C8 and on Cytochrome P450 2C9 was more than 10 µM each time. For the same compound, in series [7], the Tmax amounted to 1 h.

`CC[C@]1(C(=O)N2CC[C@](c3ccc(C(F)(C(F)(F)F)C(F)(F)F)cc3)(S(=O)(=O)c3ccc(F)cc3)C2)CC[C@H](C(=O)O)CC1`: the figures for the 50% effective concentration (EC50) in [1], in series [3] and in series [4] were more than 50 µM, more than 40 µM and more than 7.5 µM, respectively. Further, in [2], the remaining at 10 min was found to be 83%. The same compound gave a half-life in series [5] of more than 2 h. In addition, the Papp in [6] is 15.3 ×10⁻⁶ cm/s. The IC50 against Cytochrome P450 2B6, against Cytochrome P450 2C8 and against Cytochrome P450 2C9 was more than 10 µM in each case. In series [7], the Tmax was determined as 0.5 h.

A word on the EC50: it is the concentration that produces a half-maximal response. A word on the half-life: it is how long it takes for the measured level to halve. By IC50 is commonly meant the concentration that inhibits the measured activity by half. Usually Tmax stands for the time from dosing to the highest level.
